Entries after “also recorded” stand apart in the source; their conditions may differ. Where no end group is shown, it is not given here.
Legend:
[1] = tested on: CLA-1 overexpressing HeLa cells; assay: Bodipy-LPS uptake in HeLa cells in the presence of competitors; assay type: cell-based, human; settings: for effect on Bodipy-LPS uptake (surface binding and internalization): 100-fold excess of peptide, HeLa cells
Method: HeLa cells cultured on collagen-coated glass micro-slides are incubated with 5 μg/ml of Alexa 568 HDL, 1-0.5 μg/ml of Alexa 568 apoA-I, 1-0.5 μg/ml of Alexa 568 apoA-II or 0.5 μg/ml Bodipy-LPS for 1-2 hour in a CO2 incubator in DMEM containing 20 mg/ml BSA. […] Imaging is performed in PBS containing 0.4 mg/ml of Trypan Blue as the quenching agent. […] For co-localization, Bodipy-LPS and Alexa-568-apoA-I are used at the same concentration of 0.5 μg/ml. A Nikon video-imaging system, consisting of a phase contrast inverted microscope equipped with set of objectives and filters for immunofluorescence and connected to a digital camera and image processor, is used for recording Alexa-568-HDL and Bodipy-LPS uptake. For co-localization experiments, fluorescence is viewed with a Zeiss 510 laser scanning confocal microscope, using a krypton-argon-Omnichrome laser with excitation wavelengths of 488 and 568 nm for Bodipy-LPS and Alexa-568, respectively.
(§1) HeLa cells cultured on glass micro-slides are incubated with 5 μg/ml of Alexa568 HDL, 1-0.5 μg/ml of Alexa 568 apoA-I, 1-0.5 μg/ml of Alexa 568 L-37PA or 0.5 μg/ml Bodipy-LPS for 1-2 h in a CO2 incubator in DMEM containing 1 mg/ml BSA. […] For co-localization, Bodipy-LPS and Alexa 568-HDL or Bodipy-LPS and Alexa 568-L-37PA were used at the same concentrations of 0.5 μg/ml. Fluorescence was viewed with a Zeiss 510 laser scanning confocal microscope, using a krypton-argon-Omnichrome laser with excitation wavelengths of 488 and 568 nm for Bodipy-LPS and Alexa-568 labels, respectively.
Competition Experiments. The cells are incubated in 1 μg/ml Bodipy-LPS in the presence increasing concentrations of studied peptides. After 2-h incubation cells are washed with ice-cold PBS and lysed in 0.1% sodium dodecyl sulfate (SDS). The lysate fluorescence is measured by HTS7000 Bioassay reader (Perkin Elmer) using 488 nm for excitation and 533 nm for emission monitoring.

THP-1 cells [2] = assay: LPS-stimulated cytokine production in THP-1 cells (ELISA); assay type: cell-based, human; settings: 10 ng/ml LPS, 24 h
Method: (§2) THP-1 and CLA-1 overexpressing HeLa cells. Human monocyte-macrophages, THP-1 (ATCC [American Type Culture Collection] TIB 71), are grown in 48-well plates in RPMI 1640 medium supplemented with 10% fetal calf serum (FCS), penicillin (100 U/ml), and streptomycin (100 μg/ml). All experiments involving LPS-induced interleukin production utilize the same media except that 1% FCS was used. Hela cells were cultured as previously reported (Vishnyakova, T. G. et al. (2003) “BINDING AND INTERNALIZATION OF LIPOPOLY[…] CLA-1, A HUMAN ORTHOLOGUE OF RODENT […] RECEPTOR B1,” J. Biol. Chem 278:22771-22780).
Assays for cytokines and lactate dehydrogenase (LD). […]

THP-1 cells [3] = assay: LTA, Gro-EL and HSP60 stimulated IL-8/IL-6 production in THP-1 cells; assay type: cell-based, human; settings: 1 μg/ml LTA or Gro-EL, 10-200 fold excess of peptide
Method: as §2
Assays for cytokines and lactate dehydrogenase (LD).

[4] = Limulus amebocyte lysate (LAL) assay for LPS incubated with peptides; settings: 10 ng/ml LPS, 10 μg/ml peptide, 37° C., 24 h; for effect on LAL activity of LPS in the absence of bivalent cations: PBS; for effect on LAL activity of LPS in media containing bivalent cations: RPMI-1640 1% FCS or DPBS
From the text: Limulus Amebocyte Lysate (LAL) Assay for LPS.
Limulus amebocyte lysate (LAL) assay for LPS.

CLA-1 [5] = target: T1, CLA-1 (Homo sapiens, UniProt Q8WTV0); assay: Confocal uptake of Alexa/Bodipy labelled ligands in CLA-1 expressing versus mock transfected HeLa cells; assay type: cell-based; settings: for uptake in CLA-1 transfected HeLa cells compared with mock-transfected control: labelled ligand, confocal microscopy
T1 construct: using the expression plasmid pTRE2 (Clontech, Pal Alto, Calif.), encoding a CLA-1 protein (pTRE2-CLA-1); expressed in transfected cells; host or cells: HeLa (Tet-off) cells (Clontech), stably co-transfected with pTRE2-CLA-1 and pTK-Hyg and selected with hygromycin
T1 sequence (Q8WTV0 1-509 isoform Q8WTV0-2): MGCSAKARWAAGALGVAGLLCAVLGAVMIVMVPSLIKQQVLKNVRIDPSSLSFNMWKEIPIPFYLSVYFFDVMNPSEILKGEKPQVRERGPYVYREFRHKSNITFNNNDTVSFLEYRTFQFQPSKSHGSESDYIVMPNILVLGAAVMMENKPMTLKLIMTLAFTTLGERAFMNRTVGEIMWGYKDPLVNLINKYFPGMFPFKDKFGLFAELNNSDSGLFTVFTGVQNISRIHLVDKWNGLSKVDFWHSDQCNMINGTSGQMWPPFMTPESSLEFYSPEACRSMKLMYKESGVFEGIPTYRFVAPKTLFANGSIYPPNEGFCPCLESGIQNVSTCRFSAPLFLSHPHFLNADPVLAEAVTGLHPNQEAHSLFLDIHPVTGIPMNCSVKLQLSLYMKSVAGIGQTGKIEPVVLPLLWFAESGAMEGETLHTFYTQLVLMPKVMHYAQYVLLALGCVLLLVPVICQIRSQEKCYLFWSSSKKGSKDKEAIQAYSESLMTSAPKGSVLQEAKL
Method: Preparation of BODIPY-LPS and Alexa-568 HDL, Lipid-free ApoA-I, L-37PA, L2D-37PA and 18A. HDL, apoA-I, L-37PA, L2D-37PA and 18A are conjugated with Alexa-568, SE (Molecular Probes, protein labeling kit) following the kit instructions. The Alexa ligands are analyzed by 10-20% Tricine-SDS peptide gel electrophoresis. Gels are scanned using Variable Mode Imager, Typhoon 9200, Molecular Dynamics. Alexa-labeled preparations of HDL, apolipoproteins and the peptides are found in appropriate positions with molecular masses of 28, 5 and 2.5 kDa for apoA-I, L-37PA and 18PA, respectively.
as §1

CLA-1 [6] = target: T1, CLA-1; assay: Competition for Alexa 488-SAA uptake in CLA-1 overexpressing and mock transfected HeLa cells (FACS); assay type: binding; settings: mock transfected and CLA-1 overexpressing HeLa cells
Method: Competition experiments. Cells are cultured for 24 hr in serum free DMEM before experiments. […] For KKB-1 anti-CLA-1 blocking experiments, cells are pre-incubated with KKB-1 rabbit anti-serum (non-immune rabbit serum as a negative control) at a dilution of 1:10 followed by ligand addition to a final concentration of 5 μg/ml and a 1-hour incubation. Cell fluorescence was analyzed by FACS analyses.

Substance | effect on Bodipy-LPS uptake (surface binding and internalization) [1] | effect on LPS-stimulated cytokine (IL-8, IL-6, TNF-α) production (THP-1 cells [2]) | effect on LTA and Gro-EL stimulated IL-8 and IL-6 production (THP-1 cells [3]) | effect on LAL activity of LPS in the absence of bivalent cations [4] | effect on LAL activity of LPS in media containing bivalent cations [4] | SR-BI/CLA-1 ligand property (CLA-1 [5]) | uptake in CLA-1 transfected HeLa cells compared with mock-transfected control (CLA-1 [5]) | competition with Alexa 488-SAA for CLA-1 (CLA-1 [6]) | effect on LAL activity of LPS in the absence of bivalent cations ([4]; listed as L2D-37P A) | effect on LAL activity of LPS in media containing bivalent cations ([4]; listed as L2D-37P A) | effect on surface bound Bodipy-LPS ([1]; 100× excess, CLA-1 overexpressing cells) | effect on Bodipy-LPS uptake ([1]; 200× excess of unlabeled lipid poor apoA-I, CLA-1 overexpressing HeLa cells) | competition with Alexa 488-SAA for CLA-1 (CLA-1 [6]; listed as ApoA-I)
DWLKAFYDKVAEKLKEAF [Peptide 18A] | did not affect LPS-uptake | did not affect LPS-uptake and LPS-stimulated cytokine production; also recorded: Neither L2D-37PA nor 18A, a single helix containing peptide, are effective inhibitors; also recorded: without effect | low blocking efficiency | similarly neutralized LPS activity | had no effect on the LAL activity of LPS in culture media | less potent SR-BI/CLA-1 ligand | not increased | – | – | – | – | – | –
DWLKAFYDKVAEKLKEAF-P-DWLKAFYDKVAEKLKEAF [L1D-37PA] (DWLKAFYDKVAEKLKEAFPDWLKAFYDKVAEKLKEAF; not fully specified (residue 1)) [Peptide L1D-37PA] | – | not effective blockers | not effective blockers; also recorded: no effect was observed | – | – | – | – | No competition is demonstrated | – | – | – | – | –
DWLKAFYDKVAEKLKEAF-P-DWLKAFYDKVAEKLKEAF [L2D-37PA] (DWLKAFYDKVAEKLKEAFPDWLKAFYDKVAEKLKEAF; also: two D-amino acids per helix, places not given here) [Peptide L2D-37PA] | did not affect LPS-uptake; also recorded: does not decrease LPS uptake; also recorded: block neither LPS uptake | did not affect LPS-uptake and LPS-stimulated cytokine production; also recorded: Neither L2D-37PA nor 18A, a single helix containing peptide, are effective inhibitors; also recorded: not effective blockers; also recorded: without effect; also recorded: block neither LPS uptake nor LPS/LTA/Gro-EL induced interleukin (IL-6 and IL-8) secretion | not effective blockers; also recorded: block neither LPS uptake nor LPS/LTA/Gro-EL induced interleukin (IL-6 and IL-8) secretion; also recorded: no effect was observed | also decreases LPS activity in the absence of bivalent cations | No substantial LPS neutralization; also recorded: had no effect in the presence of bivalent cations | do not bind to SR-BI/CLA-1 | not increased | No competition is demonstrated | similarly neutralized LPS activity | had no effect on the LAL activity of LPS in culture media | – | – | –
DWLKAFYDKVAEKLKEAF-P-DWLKAFYDKVAEKLKEAF [L3D-37PA] (DWLKAFYDKVAEKLKEAFPDWLKAFYDKVAEKLKEAF; also: triple D-amino acid substitutions, places not given here) [Peptide L3D-37PA] | – | not effective blockers | not effective blockers; also recorded: no effect was observed | – | – | – | – | No competition is demonstrated | – | – | – | – | –
apoA-I: lipid poor apolipoprotein A-I purified from human plasma | – | – | – | – | – | – | Increased surface binding and internalization | compete with Alexa 488-SAA for CLA-1 | – | – | eliminated surface bound Bodipy-LPS | dramatically reduces Bodipy-LPS uptake | competed for CLA-1 binding with Alexa 488-SAA

— patent US20090011974A1, “Scavenger Receptor B1 (Cla-1) Targeting for the Treatment of Infection, Sepsis and Inflammation” (priority 2002, published 2009)
